Consider four compounds from publication PMC7070682, “Alpha-Glucosidase- and Lipase-Inhibitory Phenalenones from a New Species of Pseudolophiostoma Originating from Thailand” (Molecules, 2020).

For one experiment, the target named is α-glucosidase. In words: α-Glucosidase assay (p-NPG substrate). The class given is biochemical. How it is done:
α-Glucosidase assay. The substrates p-nitrophenyl α-glucopyranoside (p-NPG) and α-glucosidase were purchased from Sigma (St. Louis, USA). […] The standard assay protocol established by the Enzyme Inhibition Laboratory was adopted with minor modifications. First, 0.85 units/mL enzyme and 0.7mM of substrate were used for the initial screening of the fungal extracts, and 100mM sodium phosphate buffer containing 50 mM NaCl was prepared in deionized water (pH 6.8). The change in the absorbance was monitored initially before incubation and 30 min after the addition of p-NPG substrate. Percentage inhibition of enzyme by various test compounds was calculated using the formula: % inhibition= (ABS of Blank −ABS of Sample)/ABS of Blank× 100

The target in another experiment is T1, porcine lipase (Sus scrofa, UniProt P00591).
T1 sequence (P00591 1-450): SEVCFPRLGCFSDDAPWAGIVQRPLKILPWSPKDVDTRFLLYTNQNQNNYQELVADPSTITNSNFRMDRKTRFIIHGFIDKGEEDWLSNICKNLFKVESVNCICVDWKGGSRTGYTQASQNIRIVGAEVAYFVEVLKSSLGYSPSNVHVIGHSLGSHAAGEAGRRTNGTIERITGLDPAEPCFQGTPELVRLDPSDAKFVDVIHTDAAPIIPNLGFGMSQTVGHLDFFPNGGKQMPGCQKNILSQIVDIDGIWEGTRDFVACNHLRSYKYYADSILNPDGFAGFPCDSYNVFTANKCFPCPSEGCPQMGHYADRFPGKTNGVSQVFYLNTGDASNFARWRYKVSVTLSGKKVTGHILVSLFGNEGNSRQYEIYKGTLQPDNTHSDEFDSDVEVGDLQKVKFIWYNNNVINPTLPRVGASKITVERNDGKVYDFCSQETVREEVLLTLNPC
Put plainly: Pancreatic lipase assay (p-nitrophenyl butyrate hydrolysis). Type of experiment: biochemical. Conditions: for IC50: p-nitrophenyl butyrate substrate. As to the method: Pancreatic Lipase Assay. […] Thirty five microliters of each test compound in DMSO, 15 µL of pancreatic lipase enzyme (1 mg/mL buffer), and 45 µL Tris-HCl buffer (2.5 mmol Tris, pH = 7.4 and 2.5 mmol NaCl) were mixed in a 96 well microtiter plate and incubated at 25 °C for 15 min. The enzymatic hydrolysis was started upon the addition of 15 µL p-nitrophenyl butyrate (p-NPB). The number of p-nitrophenolate ions generated by the reaction was monitored using microplate reader, measured before incubation and 30 min after the addition of the substrate with corresponding change in absorbance at 405 nm.

Experiment [1] deals with mouse fibroblast (L929) cells. In words: Cytotoxicity assessment vs. L929. Type of experiment: cell-based. How it is done: (§1) To verify the predicted toxicity of compounds 1–3, a cytotoxicity assessment (Table 4) was performed against mouse fibroblast (L929) and HeLa (KB3.1) cells, as previously reported.
(§2) The cytotoxic effects of the compounds were evaluated using a standard procedure.

The next experiment relates to HeLa (KB3.1) cells. In words: Cytotoxicity assessment vs. KB3.1. The class given is cell-based. Conditions: Homo sapiens, KB 3-1. As to the method:
as §1, §2

On the set-up of experiment [2]: method as in PMID 21923104. As to conditions: previously shown; cited from earlier work.

Values after ≈ are worked out from the molar mass of the structure shown.

As usually defined, the IC50 is the concentration at which inhibition is half-maximal. A lower IC50 goes with inhibition by little substance. On to `Cc1cc(O)c2c3c(c(O)c4c(c13)O[C@@H](C)C4(C)C)C(=O)C(=O)O2` [Compound 1, scleroderolide], for which the IC50 at α-glucosidase was 48.7 µM; at porcine lipase, 3.4 µM; in experiment [1] it was 15 µg/mL (≈ 45.7 µM); in the experiment on HeLa (KB3.1) cells it was 21 µg/mL (≈ 64 µM).

On to `Cc1cc(O)c2c3c(c(O)c4c(c13)O[C@@H](C)C4(C)C)C(=O)C2=O` [Compound 2, sclerodione], for which the IC50 was 120 µM against α-glucosidase, 1 µM at porcine lipase, 27 µg/mL (≈ 86.4 µM) in experiment [1] and 18 µg/mL (≈ 57.6 µM) in the experiment with HeLa (KB3.1) cells. For the same compound, on porcine lipase (relative to positive control orlistat), the “times more potent than orlistat (lipase inhibition)” value turned out to be 9 times. The antimicrobial activities entry in experiment [2] was “moderate”.

`Cc1cc(O)cc2c1C1=C(C(=O)C2=O)C(C)(C)[C@H](C)O1` [Compound 3, trypethelone]: the IC50 at α-glucosidase was more than 100 µM; against porcine lipase, more than 100 µM; in experiment [1] it was 2.7 µg/mL (≈ 9.92 µM); in the experiment with HeLa (KB3.1) cells, 4.2 µg/mL (≈ 15.4 µM).

`C/C(=C\c1csc(C)n1)[C@@H]1C[C@@H]2O[C@]2(C)CCC[C@H](C)[C@H](O)[C@@H](C)C(=O)C(C)(C)[C@@H](O)CC(=O)O1` [Epothilone B, reference compound]: the IC50 was 0.0009 µg/mL (≈ 0.00177 µM) in experiment [1] and 4e-05 µg/mL (≈ 7.88e-05 µM) in the experiment on HeLa (KB3.1) cells.
